According to patent EP3046573B1, “AMYLIN ANALOGUES” (Zealand Pharma A/S, priority 2013, dated 2015):
Where two headings read alike, the source gives them in different places. Numbered stars: 1 amine (or outer) side, 2 acyl side, 3 side chain; on linkers, the order of the positions; unused ones are H or OH. Bridge positions count the residues as written; N and C are the ends. Square brackets hold non-standard residues; d marks the D form. Peptide text beside a SMILES is read from it. * marks the point of attachment. C20 diacid = O=C(O)CCCCCCCCCCCCCCCCCCC(=O)*; γGlu = O=C(O)[C@H](CCC(=O)[*:2])N[*:1]; NMeI = CC[C@H](C)[C@H](NC)C(=O)O; Sar = CNCC(=O)O

Legend:
[1] = Solubility assessment (turbidity absorbance at 325 nm); format: physicochemical; settings: stock 2 mg/ml diluted 1:1, ambient temperature (typically 25°C), n=1; for Solubility, Acetate buffer pH 4: 100 mM acetate buffer pH 4.0; for Solubility, Acetate buffer pH 5: 100 mM acetate buffer pH 5.0; for Solubility, Histidine buffer pH 6: 100 mM histidine buffer pH 6.0; for Solubility, Histidine buffer pH 7: 100 mM histidine buffer pH 7.0; for Solubility, Phosphate buffer pH 6: 100 mM phosphate buffer pH 6.0; for Solubility, Phosphate buffer pH 7: 100 mM phosphate buffer pH 7.0; for Solubility, Phosphate buffer pH 7.5: 100 mM phosphate buffer pH7.5
In short: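 Peptide stock (2 mg/ml) in water acidified to pH 2.5 with HCl was diluted 1:1 into 100 mM acetate (pH 4.0, 5.0), histidine (pH 6.0, 7.0) or phosphate (pH 6.0, 7.0, 7.5) buffer. A280 and A325 were read at about 25°C, n=1. A325 ≤ 0.02 meant solubility ≥ 1 mg/ml.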

[2] = molecular target: T1, human calcitonin receptor (hCTR2) (Homo sapiens, UniProt P30988); test: hCTR2 assay: induction of cAMP (AlphaScreen cAMP Assay kit) in COS7 cells expressing hCTR2; format: cell-based
T1 construct: expressed in transfected cells
T1 sequence (P30988 25-474): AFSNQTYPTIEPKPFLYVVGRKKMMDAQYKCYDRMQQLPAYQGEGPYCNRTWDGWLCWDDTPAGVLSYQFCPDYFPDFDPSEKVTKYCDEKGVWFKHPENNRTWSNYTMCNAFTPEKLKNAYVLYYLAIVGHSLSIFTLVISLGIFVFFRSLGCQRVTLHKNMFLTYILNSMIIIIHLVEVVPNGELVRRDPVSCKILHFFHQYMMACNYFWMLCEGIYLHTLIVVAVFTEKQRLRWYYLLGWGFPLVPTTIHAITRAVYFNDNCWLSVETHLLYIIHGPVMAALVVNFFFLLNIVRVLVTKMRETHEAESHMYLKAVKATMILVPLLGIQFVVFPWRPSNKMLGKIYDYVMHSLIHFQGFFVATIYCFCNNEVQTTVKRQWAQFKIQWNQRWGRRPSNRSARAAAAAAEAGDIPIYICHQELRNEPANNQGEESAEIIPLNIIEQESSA
In short: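 Stable RAMP-naive COS7 clone expressing hCTR2 was stimulated with increasing peptide concentrations in Tyrode buffer (pH 7.4) with 100 µM IBMX and 0.1% casein for 15 min at 37° C. Cells were lysed and cAMP measured by AlphaScreen. EC50 and efficacy relative to pramlintide came from 4PL curve fits.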

SMILES | Solubility, Acetate buffer pH 4 [1] | Solubility, Acetate buffer pH 5 [1] | Solubility, Histidine buffer pH 6 [1] | Solubility, Histidine buffer pH 7 [1] | Solubility, Phosphate buffer pH 6 [1] | Solubility, Phosphate buffer pH 7 [1] | Solubility, Phosphate buffer pH 7.5 [1] | EC50 [2] [nM] | EC50 ([2]; cAMP induction in COS7 cells expressing hCTR2, average of a minimum of 3 determinations, read-out: hCTR2 EC50) [nM]
CC[C@H](C)[C@@H](C(=O)N[C@@H](CC(C)C)C(=O)N[C@@H](CO)C(=O)N[C@@H](CO)C(=O)N[C@H](C(=O)N[C@@H](CC(N)=O)C(=O)N[C@H](C(=O)NCC(=O)N[C@@H](CO)C(=O)N[C@@H](CC(N)=O)C(=O)N[C@H](C(=O)N1CCC[C@H]1C(N)=O)[C@@H](C)O)C(C)C)[C@@H](C)O)N(C)C(=O)[C@H](C)NC(=O)CN(C)C(=O)[C@H](Cc1ccccc1)NC(=O)[C@H](CC(N)=O)NC(=O)[C@H](CC(N)=O)NC(=O)[C@H](CO)NC(=O)[C@H](CO)NC(=O)[C@H](Cc1c[nH]cn1)NC(=O)[C@H](CCCNC(=N)N)NC(=O)[C@H](CC(C)C)NC(=O)[C@H](Cc1ccccc1)NC(=O)[C@H](CCC(=O)O)NC(=O)[C@H](C)NC(=O)[C@H](CC(C)C)NC(=O)[C@H](CCCNC(=N)N)NC(=O)[C@H](CCC(N)=O)NC(=O)[C@@H](NC(=O)[C@H](C)NC(=O)[C@@H]1CSSC[C@H](NC(=O)[C@H](CCCNC(=N)N)NC(=O)CC[C@H](NC(=O)CCCCCCCCCCCCCCCCCCC(=O)O)C(=O)O)C(=O)N[C@@H](CC(N)=O)C(=O)N[C@@H]([C@@H](C)O)C(=O)N[C@@H](C)C(=O)N[C@@H]([C@@H](C)O)C(=O)N1)[C@@H](C)O [Compound 21, [19CD]-isoGlu-RC()NTATC()ATQRLAEFLRHSSNNF-Gly(Me)-A-Ile(Me)-LSSTNVGSNTP-NH2] ({C20 diacid-γGlu}-RCNTATCATQRLAEFLRHSSNNF[Sar]A[NMeI]LSSTNVGSNTP-NH2; disulfide 2-7) | SS (SS indicates solubility ≥ 1mg/ml) | SS (SS indicates solubility ≥ 1mg/ml) | SS (SS indicates solubility ≥ 1mg/ml) | SS (SS indicates solubility ≥ 1mg/ml) | SS (SS indicates solubility ≥ 1mg/ml) | SS (SS indicates solubility ≥ 1mg/ml) | SS (SS indicates solubility ≥ 1mg/ml) | 0.38 | –
CC[C@H](C)[C@@H](C(=O)N[C@@H](CC(C)C)C(=O)N[C@@H](CO)C(=O)N[C@@H](CO)C(=O)N[C@H](C(=O)N[C@@H](CC(N)=O)C(=O)N[C@H](C(=O)NCC(=O)N[C@@H](CO)C(=O)N[C@@H](CC(N)=O)C(=O)N[C@H](C(=O)N1CCC[C@H]1C(N)=O)[C@@H](C)O)C(C)C)[C@@H](C)O)N(C)C(=O)CN(C)C(=O)[C@H](Cc1ccccc1)NC(=O)[C@H](CC(N)=O)NC(=O)[C@H](CC(N)=O)NC(=O)[C@H](CO)NC(=O)[C@H](CO)NC(=O)[C@H](Cc1c[nH]cn1)NC(=O)[C@H](CCCNC(=N)N)NC(=O)[C@H](CC(C)C)NC(=O)[C@H](Cc1ccccc1)NC(=O)[C@H](CCC(=O)O)NC(=O)[C@H](C)NC(=O)[C@H](CC(C)C)NC(=O)[C@H](CCCNC(=N)N)NC(=O)[C@H](CCC(N)=O)NC(=O)[C@@H](NC(=O)[C@H](C)NC(=O)[C@@H]1CSSC[C@H](NC(=O)[C@H](CCCNC(=N)N)NC(=O)CC[C@H](NC(=O)CCCCCCCCCCCCCCCCCCC(=O)O)C(=O)O)C(=O)N[C@@H](CC(N)=O)C(=O)N[C@@H]([C@@H](C)O)C(=O)N[C@@H](C)C(=O)N[C@@H]([C@@H](C)O)C(=O)N1)[C@@H](C)O [Compound 22, [19CD]-isoGlu-RC()NTATC()ATQRLAEFLRHSSNNF-Gly(Me)-Ile(Me)-LSSTNVGSNTP-NH2] ({C20 diacid-γGlu}-RCNTATCATQRLAEFLRHSSNNF[Sar][NMeI]LSSTNVGSNTP-NH2; disulfide 2-7) | SS (SS indicates solubility ≥ 1mg/ml) | SS (SS indicates solubility ≥ 1mg/ml) | SS (SS indicates solubility ≥ 1mg/ml) | SS (SS indicates solubility ≥ 1mg/ml) | SS (SS indicates solubility ≥ 1mg/ml) | SS (SS indicates solubility ≥ 1mg/ml) | SS (SS indicates solubility ≥ 1mg/ml) | – | 0.31
